From ChEMBL document CHEMBL1201862, “PubChem BioAssay data set” (2004) come the findings set out here.

Among the test systems are 786-0; MDA-MB-231; TK-10; SN12C; OVCAR-5; SK-MEL-2; UACC-62; SK-OV-3; CAKI-1; HCT-15; DU-145; RXF 393; SK-MEL-28; UACC-257; SF-295; SF-539; NCI-H23; Malme-3M; NCI-H226.
Common to all, as to assay: NCI tumour cell line growth inhibition, 48 h

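Where inhibition never reached the appropriate level, the endpoint shown equals the highest concentration tested. Otherwise, values were interpolated linearly from a five-concentration, 48-hour dose response in 96-well plates. The concentration for 50% growth inhibition is given as GI50.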 Activity calls are given as the source filed them. Cut-off read from the data, not from the text of the source: active = GI50 up to about 1.1 µM and inactive = higher. A value given as a limit tells only on which side of the number the result lay.

Regarding `N#Cc1nc(-c2ccccc2O)oc1N`, the GI50 is 70.1 µM (inactive) in the test on 786-0; > 100 µM (inactive) in the test with MDA-MB-231; 63.8 µM (inactive) in the test with TK-10; 81.1 µM (inactive) in the test with SN12C; > 100 µM (inactive) in the test with OVCAR-5; > 100 µM (inactive) with SK-MEL-2. Further, the GI50 in the test with UACC-62 is 95.9 µM (inactive); in the test with SK-OV-3 it was > 100 µM (inactive); with CAKI-1 it was 36.9 µM (inactive); in the test with HCT-15, 43.5 µM; with DU-145, > 100 µM (inactive); in the test with RXF 393, 55.7 µM (inactive). Also, the GI50 in the test with SK-MEL-28 and in the test with UACC-257 was > 100 µM (inactive) in each case.

As to `Cc1ccc(S(=O)(=O)NNC2(NS(=O)(=O)c3ccc(Cl)cc3)C(Cl)=C(Cl)C(=O)c3ccccc32)cc1` (configuration not stated), the GI50 in the test with 786-0 was 14.1 µM (inactive); in the test on SF-295 it was 20.9 µM (inactive); with MDA-MB-231, 19 µM (inactive); in the test with TK-10, 16.8 µM (inactive); in the test with SF-539, 21.2 µM (inactive); in the test on SN12C it was 17 µM (inactive). Further, the GI50 is 18.3 µM (inactive) in the test on OVCAR-5; 20 µM (inactive) with SK-MEL-2; 16.6 µM (inactive) in the test with UACC-62; 16.9 µM (inactive) in the test on SK-OV-3; 18.4 µM (inactive) with CAKI-1; 24.4 µM with HCT-15. The GI50 in the test on DU-145 was 18.5 µM (inactive); in the test with NCI-H23, 15 µM (inactive); in the test on RXF 393, 17 µM (inactive); in the test with Malme-3M, 17.3 µM (inactive); in the test on SK-MEL-28, 25.7 µM (inactive); in the test on UACC-257, 17.6 µM (inactive).

`CC(C)OC1=C(CC2(C)OCCO2)C(=O)C12OCCO2`: the GI50 in the test on 786-0, in the test with SF-295, in the test with MDA-MB-231, with NCI-H226, in the test with TK-10 and with SF-539 was > 100 µM (inactive) in each case. Further, the GI50 with SN12C, in the test with OVCAR-5, in the test on SK-MEL-2, in the test on UACC-62, with SK-OV-3 and in the test with CAKI-1 was > 100 µM (inactive) each time. Further, the GI50 in the test on HCT-15 is greater than 100 µM; in the test with DU-145 it was > 100 µM (inactive); with NCI-H23, 42 µM (inactive); in the test on SK-MEL-28, > 100 µM (inactive); in the test with UACC-257, > 100 µM (inactive).

`c1ccc(-c2cnc(-c3ccc(-c4ncc(-c5ccccc5)o4)cc3)o2)cc1`: the GI50 in the test with 786-0, in the test with SF-295, in the test with MDA-MB-231, with NCI-H226, with TK-10 and with SN12C was > 100 µM (inactive) each time. For the same compound, the GI50 is > 100 µM (inactive) in the test with OVCAR-5; > 100 µM (inactive) in the test with UACC-62; > 100 µM (inactive) with SK-OV-3; greater than 100 µM in the test on HCT-15; > 100 µM (inactive) in the test with DU-145; > 100 µM (inactive) in the test on NCI-H23. In addition, the GI50 in the test with RXF 393, in the test with Malme-3M, in the test on SK-MEL-28 and in the test with UACC-257 was > 100 µM (inactive) throughout.

As to `Cc1nc(/C(=N\n2cnnc2)Nc2ccc(Br)cc2)no1`, the GI50 in the test with 786-0, in the test on SF-295, in the test with MDA-MB-231, in the test on OVCAR-5, in the test on SK-MEL-2 and in the test with UACC-62 was > 100 µM (inactive) throughout. In addition, the GI50 in the test with SK-OV-3 was > 100 µM (inactive); in the test with CAKI-1, > 100 µM (inactive); in the test with HCT-15 it was greater than 100 µM; in the test on DU-145 it was > 100 µM (inactive); with NCI-H23 it was > 100 µM (inactive); in the test on RXF 393, > 100 µM (inactive). For the same compound, the GI50 in the test on Malme-3M, with SK-MEL-28 and in the test with UACC-257 was > 100 µM (inactive) throughout.

With `CN1C(=O)c2c(ccc3c2OCO3)C2C(O)Cc3cc4c(cc3C21)OCO4` (configuration not stated), the GI50 was 4.17 µM (inactive) in the test on 786-0; 1.71 µM (inactive) with SF-295; 3.38 µM (inactive) in the test with MDA-MB-231; 2.15 µM (inactive) with NCI-H226; 7.8 µM (inactive) in the test on TK-10; 4.57 µM (inactive) in the test with SF-539. The GI50 with SN12C is 4.15 µM (inactive); in the test on OVCAR-5, > 100 µM (inactive); in the test on SK-MEL-2, 2.47 µM (inactive); in the test with UACC-62, 3.36 µM (inactive); with SK-OV-3, 2.98 µM (inactive); in the test with CAKI-1 it was 4.76 µM (inactive). The GI50 is 3.73 µM in the test with HCT-15, 3.65 µM (inactive) with DU-145, 5.58 µM (inactive) in the test with NCI-H23 and 3.22 µM (inactive) in the test on SK-MEL-28.

Consider `CCOP(=O)(O)CC1OC(CO)C(O)C1O` (configuration not stated), for which the GI50 in the test on 786-0, in the test on SF-295, with MDA-MB-231, with NCI-H226, with TK-10 and in the test with SF-539 was > 100 µM (inactive) in each case. Also, the GI50 was > 100 µM (inactive) in the test with SN12C; > 100 µM (inactive) in the test with OVCAR-5; > 100 µM (inactive) in the test on SK-MEL-2; > 100 µM (inactive) with UACC-62; > 100 µM (inactive) with SK-OV-3; greater than 100 µM with HCT-15. Besides, the GI50 with DU-145, in the test with NCI-H23, in the test with RXF 393, with Malme-3M, with SK-MEL-28 and with UACC-257 was > 100 µM (inactive) in each case.

For `CSc1ccc(/C=C2\N=C(c3ccccc3)N(c3nc4ccc(Sc5ccccc5)cc4[nH]3)C2=O)cc1`, the GI50 is 13.9 µM (inactive) in the test on 786-0; 14.3 µM (inactive) with SF-295; 18.3 µM (inactive) with MDA-MB-231; 16.9 µM (inactive) in the test with TK-10; 21.7 µM (inactive) with SN12C; 26.2 µM (inactive) with OVCAR-5. Besides, the GI50 in the test with SK-MEL-2 is 13 µM (inactive); in the test with UACC-62, 14.2 µM (inactive); with SK-OV-3, 14.7 µM (inactive); in the test with CAKI-1, 21.5 µM (inactive); with HCT-15, 18.2 µM; in the test on DU-145, 27.6 µM (inactive). Further, the GI50 was 26.3 µM (inactive) with NCI-H23; 17.4 µM (inactive) in the test with RXF 393; 16.6 µM (inactive) in the test on Malme-3M; 18.9 µM (inactive) in the test on SK-MEL-28; 13.9 µM (inactive) in the test with UACC-257.

Take `Cc1ccc2c(=O)c(C(=O)N(CCO)CCO)c[nH]c2n1`: the GI50 in the test with 786-0, with SF-295, with MDA-MB-231, in the test with NCI-H226, in the test on TK-10 and in the test on SN12C was > 100 µM (inactive) throughout. Besides, the GI50 in the test on OVCAR-5 was > 100 µM (inactive); in the test with SK-MEL-2 it was > 100 µM (inactive); in the test with UACC-62, > 100 µM (inactive); in the test with CAKI-1, > 100 µM (inactive); with HCT-15, greater than 100 µM; in the test with DU-145 it was > 100 µM (inactive). The GI50 in the test on NCI-H23, in the test with RXF 393, in the test on Malme-3M, in the test on SK-MEL-28 and in the test with UACC-257 was > 100 µM (inactive) each time.

With `N#CC(C#N)=CNC(=S)Nc1ccc(S(=O)(=O)Nc2nccs2)cc1`, the GI50 in the test on 786-0, with SF-295, with MDA-MB-231, with NCI-H226, in the test on TK-10 and in the test with SF-539 was > 100 µM (inactive) throughout. Moreover, the GI50 in the test with SN12C, in the test on OVCAR-5, in the test on SK-MEL-2, in the test with UACC-62, with SK-OV-3 and in the test with CAKI-1 was > 100 µM (inactive) throughout. Moreover, the GI50 in the test with HCT-15 is greater than 100 µM; in the test with DU-145 it was > 100 µM (inactive); in the test with NCI-H23, > 100 µM (inactive); in the test with RXF 393, > 100 µM (inactive); in the test on SK-MEL-28, > 100 µM (inactive); in the test with UACC-257, > 100 µM (inactive).

In the case of `Cc1cc2c(cc1Cl)SC(NNc1cnc3ccccc3n1)=NS2(=O)=O`, the GI50 is 38.3 µM (inactive) in the test with 786-0; 29.9 µM (inactive) with SF-295; 61 µM (inactive) in the test with MDA-MB-231; 44.4 µM (inactive) with NCI-H226; > 100 µM (inactive) in the test on TK-10; 29.4 µM (inactive) in the test on SF-539. Moreover, the GI50 is 88.3 µM (inactive) in the test with SN12C; > 100 µM (inactive) in the test with OVCAR-5; 60.7 µM (inactive) in the test on UACC-62; 44.2 µM (inactive) in the test with SK-OV-3; > 100 µM (inactive) in the test with CAKI-1; 75.2 µM with HCT-15. The GI50 was > 100 µM (inactive) in the test with DU-145; > 100 µM (inactive) with NCI-H23; 40.3 µM (inactive) in the test with RXF 393; 22.6 µM (inactive) with Malme-3M; 60.5 µM (inactive) with SK-MEL-28; 72.8 µM (inactive) in the test on UACC-257.

On to `CC(=O)O[C@@H]1CC[C@@]2(C)C(CC[C@H]3[C@@H]4CC[C@H]([C@H](C)CCc5nc6cc(C)ccc6[nH]5)[C@@]4(C)CC[C@@H]32)C1` (some centres not stated), for which the GI50 with 786-0 was 8.69 µM (inactive); in the test with SF-295, 12 µM (inactive); with MDA-MB-231, 18 µM (inactive); with NCI-H226 it was 9.38 µM (inactive); with TK-10, > 100 µM (inactive); in the test on SF-539, > 100 µM (inactive). Further, the GI50 with SN12C is 41.5 µM (inactive); with OVCAR-5, > 100 µM (inactive); in the test on SK-MEL-2 it was 31 µM (inactive); with UACC-62, 11.5 µM (inactive); with SK-OV-3 it was > 100 µM (inactive); in the test with CAKI-1 it was > 100 µM (inactive). The GI50 with HCT-15 is 46.6 µM; with DU-145 it was 45.7 µM (inactive); in the test with NCI-H23, 17.3 µM (inactive); in the test with RXF 393, 6.81 µM (inactive); with SK-MEL-28, > 100 µM (inactive); in the test on UACC-257, 38.7 µM (inactive).
